This is an account of results in patent publication US6395906B1, “Intermediates to pesticidal 1-arylpyrazoles” (Rhone-Poulenc Inc., priority 1995, dated 2002).

Assay type in all cases: in vivo
Experiment [1] deals with western corn rootworm (Diabrotica virgifera virgifera). Description: Western corn rootworm (WCRW) soil test. The following applies: soil concentration 0.15 or 0.5 ppm; neonate larvae, mortality six days after infestation. As to the method: (§1) For the tick, aphids, souther armyworm, tobacco budworm, house fly, Mexican bean beetle, American cockroach, cat flea, souther corn rootworm, western corn rootworm, black cutworm, and southern root-knot nematode, a solution or suspension was prepared by adding the test compound to a solution of dimethylformamide, acetone, emulsifiers which are alkylaryl polyether alcohols organic sulfonates, and water. The result was a 100 or 500 ppm concentration of the test compound.
For the western corn rootworm test, the water-acetone-DMF-emulsifier solution was adjusted for a treatment rate of 0.15 or 0.5 ppm.
Western corn rootworm (WCRW): The 500 ppm test formulation was applied to dry sandy loam soil contained in a glass jar for a soil concentration of 0.15 or 0.5 ppm. As an untreated control, an aliquot of a water-acetone-DMF-emulsifier solution containing no test compound was applied in a similar manner. After incubating covered for 24 hours, the soil was mixed and four germinated corn seedlings were added to the jar. Ten neonate western corn rootworm larvae were placed in the jar. Six days after infestation, mortality was assessed by Berlese funnel extraction.

Experiment [2] relates to southern armyworm (Spodoptera eridania). Kind of experiment: Southern armyworm (SAW) treated bean leaf test. The following applies: bean leaves, 100 or 500 ppm; second instar larvae, five days. Here is the method:
as §1
Southern armyworm (SAW), Mexican bean beetle (MBB): Bean leaves were wet to runoff with the 100 or 500 ppm test compound formulation. As an untreated control, a water-acetone-DMF-emulsifier solution containing no test compound was also applied wet to runoff to bean leaves. Five or six randomly selected second instar southern armyworn larvae or Mexican bean bettle larvae were introduced into each plastic container with the dry treated leaves. The container was closed and held for five days. Larvae which were unable to move the length of the body, even upon stimulation by prodding, were considered dead.

Experiment [3] has as its system house fly (Musca domestica). Kind of experiment: House fly (HF) bait test. The following applies: sucrose bait, 100 or 250 ppm; adult flies, mortality after 24 hours. Here is the method: as §1
For house fly tests, the water-acetone-DMF-emulsifier solution was adjusted with a 20% by weight aqueous solution of sucrose to provide a final 100 or 250 ppm concentration of the test compound.
House fly (HF): Four to six day old adult house flies were used. The files were immobilized by anesthetizing with carbon dioxide. A bait cup was prepared which contained the 100 or 250 ppm test compound formulation/sucrose solution and one or two absorbent cotton pad(s). As an untreated control, a water-acetone-DMF-emulsifier-sucrose solution containing no test compound was applied in a similar manner. The bait cup was introduced inside the cage prior to admitting 12-25 anesthetized flies. Mortality was assessed after 24 hours.

For experiment [4], the system named is southern corn rootworm (Diabrotica undecimpunctata howardi). Kind of experiment: Southern corn rootworm (SCRW) soil test. The following applies: soil concentration 2.5, 5, 6.75 or 10 ppm; mortality eight days after infestation. As to the method:
as §1
For southern corn rootworm and black cutworm tests, the water-acetone-DMF-emulsifier solution was adjusted for a treatment rate of 2.5, 5, 6.75 or 10 ppm.
Southern corn rootworm (SCRW), Black cutworm (BCW): Corn seeds were placed in a glass jar and covered with dry sandy loam soil. The 500 ppm test formulation was applied for a soil concentration of 2.5, 5, 6.75 or 10 ppm. As an untreated control, an aliquot of a water-acetone-DMF-emulsifier solution containing no test compound was applied in a similar manner. After incubating covered for 24 hours, the soil was mixed and inoculated with approximately 25 southern corn rootworm eggs. Following an additional 48 hours, two late second to early third instar black cutworms were placed in the jar with a portion of insect diet. Eight days after infestation, mortality was assessed visually for cutworm and by Berlese funnel extraction for rootworm.

Experiment [5] has as its system cotton aphid (Aphis gossypii). Kind of experiment: Cotton aphid (CA) foliar spray test. The following applies: cotton plants wet to runoff, 100 or 500 ppm; dead aphids counted after three days. As to the method: as §1
Buckthorn aphid (BA) or cotton aphid (CA): Adult and nymphal stages of buckthorn or cotton aphid were reared on potted dwarf nasturtium or cotton plants, respectively. Plants infested with 100-150 aphids were wet to runoff with the 100 or 500 ppm test compound formulation. As an untreated control, a water-acetone-DMF-emulsifier solution containing no test compound was also applied to runoff to infested plants. The treated plants were stored for one day for buckthorn aphid and three days for cotton aphid, after which the dead aphids were counted.

Experiment [6] concerns American cockroach (Periplaneta americana). Kind of experiment: American cockroach (ACR) treated food pellet test. The note with it: food pellets with 500 ppm formulation; nymphs, contact and feeding mortality 1 and 5 days after infestation. Here is the method: as §1
American cockroach (ACR): Cat food or dog food pellets were added to jars containing 1-2 mls of the 500 ppm test formulation. As an untreated control, an aliquot of a water-acetone-DMF-emulsifier solution containing no test compound was applied in a similar manner. After 48 hours, roach nymphs were added to the jar. Contact and feeding mortally was assessed 1 and 5 days after infestation.

For experiment [7], the system named is southern root-knot nematode (Meloidogyne incognita). Description: Southern root-knot nematode (SRKN) soil test. The following applies: soil treatment 23 kg/ha; tomato or cotton root galling rated after 2-3 weeks. As to the method:
as §1
For the southern root-knot nematode tests, the water-acetone-DMF-emulsifier solution was adjusted for a treatment rate of 23 kg/ha soil concentration.
Southern root-knot nematode (SRKN): Eggs and second stage juveniles (J2s) of southern root-knot nematodes were obtained from infected roots of reared tomato plants. Pots containing moist soil were treated with the test compound solution for a treatment rate of 23 kg/ha. As an untreated control, an aliquot of a water-acetone-DMF-emulsifier solution containing no test compound was applied in a similar manner. Immediately after treatment, eggs or J2s of southern root-knot nematode were added to the treated soil. For test with cotton, the seeds were placed on top of the soil the day of treatment and inoculation. For the tests with tomato, the seedlings were transplanted in the pot three days after treatment. The pots were kept in the greenhouse for 2-3 weeks. At the termination of the test, roots of the tomato or cotton seedlings were evaluated for galling on a rating scale from 1 to 5 with one equal to severe galling, relative to untreated control, and five to no galling, i.e., complete control.

Experiment [8] relates to tobacco budworm (Heliothis virescens). Kind of experiment: Tobacco budworm (TBW) treated cotton leaf test. The following applies: cotton leaves, 100 ppm; second instar larvae, five days. As to the method:
as §1
Tobacco budworm (TBW): Cotton leaves were wet to runoff with the 100 ppm test compound formulation. As an untreated control, a water-acetone-DMF-emulsifier solution containing no test compound was also applied wet to runoff to cotton leaves. Ten randomly selected second instar tobacco budworm larvae were introduced into plastic containers in which moist dental wicks and the dry treated leaves had been placed. The cups were closed and held for five days. Larvae which were unable to move the length of the body, even upon stimulation by prodding, were considered dead.

Regarding `N#Cc1nn(-c2c(Cl)cc(C(F)(F)F)cc2Cl)c(C=O)c1SC(F)(F)F` [Compound 2, 3-Cyano-1-(2,6-dichloro-4-trifluoromethylphenyl)-5-formyl-4-trifluoromethylthiopyrazole], in experiment [1], the WCRW entry is recorded as “+ (active against 1 or more insects described above up to 100% mortality. This activity is indicated by a “+”)”.

For `COC(OC)c1c(SC(F)(F)F)c(C#N)nn1-c1c(Cl)cc(C(F)(F)F)cc1Cl` [Compound 4, 3-Cyano-1-(2,6-dichloro-4-trifluoromethylphenyl)-5-dimethoxymethyl-4-trifluoromethylthiopyrazole], the WCRW entry in experiment [1] is reported as “+ (active against 1 or more insects described above up to 100% mortality. This activity is indicated by a “+”)”.

Turning to `COC(C#N)c1c(SC(F)(F)F)c(C#N)nn1-c1c(Cl)cc(C(F)(F)F)cc1Cl` (stereo not shown) [Compound 6, 3-Cyano-5-{(1-cyano-1-methoxy)methyl}-1-(2,6-dichloro-4-trifluoromethylphenyl)-4-trifluoromethylthiopyrazole], the WCRW entry in experiment [1] is on record as “+ (active against 1 or more insects described above up to 100% mortality. This activity is indicated by a “+”)”. In addition, in experiment [2], the SAW entry was “+ (active against 1 or more insects described above up to 100% mortality. This activity is indicated by a “+”)”. In addition, in experiment [3], the HF result was “+ (active against 1 or more insects described above up to 100% mortality. This activity is indicated by a “+”)”. Moreover, in experiment [4], the SCRW result is listed as “+ (active against 1 or more insects described above up to 100% mortality. This activity is indicated by a “+”)”. The CA result in experiment [5] is listed as “+ (active against 1 or more insects described above up to 100% mortality. This activity is indicated by a “+”)”.

With `CN(C)N=Cc1c(SC(F)(F)F)c(C#N)nn1-c1c(Cl)cc(C(F)(F)F)cc1Cl` [Compound 11, 3-Cyano-1-(2,6-dichloro-4-trifluoromethylphenyl)-5-(N,N-dimethylaminoiminomethylidenyl)-4-trifluoromethylthiopyrazole], in experiment [1], the WCRW result is reported as “+ (active against 1 or more insects described above up to 100% mortality. This activity is indicated by a “+”)”. Also, the HF result in experiment [3] is “+ (active against 1 or more insects described above up to 100% mortality. This activity is indicated by a “+”)”. In experiment [4], the SCRW result was “+ (active against 1 or more insects described above up to 100% mortality. This activity is indicated by a “+”)”.

On to `COC(OC)c1c([S+]([O-])C(F)(F)F)c(C#N)nn1-c1c(Cl)cc(C(F)(F)F)cc1Cl` (stereo not shown) [Compound 13, 3-Cyano-1-(2,6-dichloro-4-trifluoromethylphenyl)-5-dimethoxymethyl-4-trifluoromethylsulfinylpyrazole], for which the WCRW result in experiment [1] was “+ (active against 1 or more insects described above up to 100% mortality. This activity is indicated by a “+”)”. Also, the ACR result in experiment [6] is on record as “+ (active against 1 or more insects described above up to 100% mortality. This activity is indicated by a “+”)”. Moreover, the SRKN result in experiment [7] is on record as “+ (active against 1 or more insects described above up to 100% mortality. This activity is indicated by a “+”)”. The TBW entry in experiment [8] is on record as “+ (active against 1 or more insects described above up to 100% mortality. This activity is indicated by a “+”)”. Also, in experiment [5], the CA result was “+ (active against 1 or more insects described above up to 100% mortality. This activity is indicated by a “+”)”.

On to `COC(OC)c1c(S(=O)(=O)C(F)(F)F)c(C#N)nn1-c1c(Cl)cc(C(F)(F)F)cc1Cl` [Compound 15, 3-Cyano-1-(2,6-dichloro-4-trifluoromethlphenyl)-5-dimethoxymethyl-4-trifluoromethylsulfonylpyrazole], for which the WCRW entry in experiment [1] was “+ (active against 1 or more insects described above up to 100% mortality. This activity is indicated by a “+”)”. In addition, the SAW result in experiment [2] is listed as “+ (active against 1 or more insects described above up to 100% mortality. This activity is indicated by a “+”)”. Further, the ACR entry in experiment [6] was “+ (active against 1 or more insects described above up to 100% mortality. This activity is indicated by a “+”)”. Further, the SRKN entry in experiment [7] is listed as “+ (active against 1 or more insects described above up to 100% mortality. This activity is indicated by a “+”)”. Moreover, the HF entry in experiment [3] is listed as “+ (active against 1 or more insects described above up to 100% mortality. This activity is indicated by a “+”)”. The SCRW entry in experiment [4] was “+ (active against 1 or more insects described above up to 100% mortality. This activity is indicated by a “+”)”. The CA entry in experiment [5] was “+ (active against 1 or more insects described above up to 100% mortality. This activity is indicated by a “+”)”.

`COC(C#N)c1c(S(=O)(=O)C(F)(F)F)c(C#N)nn1-c1c(Cl)cc(C(F)(F)F)cc1Cl` (stereo not shown) [Compound 16, 3-Cyano-5-{(1-cyano-1-methoxy)methyl}-1-(2,6-dichloro-4-trifluoromethylphenyl)-4-trifluoromethylsulfonylpyrazole]: the WCRW result in experiment [1] is recorded as “+ (active against 1 or more insects described above up to 100% mortality. This activity is indicated by a “+”)”. Further, the SAW entry in experiment [2] is “+ (active against 1 or more insects described above up to 100% mortality. This activity is indicated by a “+”)”. The ACR result in experiment [6] was “+ (active against 1 or more insects described above up to 100% mortality. This activity is indicated by a “+”)”. The HF entry in experiment [3] was “+ (active against 1 or more insects described above up to 100% mortality. This activity is indicated by a “+”)”. Further, in experiment [8], the TBW entry was “+ (active against 1 or more insects described above up to 100% mortality. This activity is indicated by a “+”)”. The SCRW entry in experiment [4] is listed as “+ (active against 1 or more insects described above up to 100% mortality. This activity is indicated by a “+”)”.
